Patent US20060008541A1, “Sodium channel agonist” (BIZMEDIC CO., LTD., priority 2004, published 2006)
Where “and” joins values, the source holds several entries; their conditions need not be identical. Equal values may be shown once. Entries after “also recorded” stand apart in the source; their conditions may differ.

Legend:
[1] = system: rat ventricular myocytes; test: Action potentials in isolated rat ventricular myocytes, whole-cell current clamp
Experimental: Ventricular myocytes were isolated from the hearts of 3-week or 6 to 7- week-old Sprague-Dawley rats of either sex. Rats were anaesthetized with pentobarbitone sodium (i.p. 200 mg kg^−1). Isolated hearts were mounted on a Langendorff perfusion apparatus, washed at 37° C. for 5 min with a modified Tyrode solution containing (mM): 143 NaCl, 5.4 KCl, 5 HEPES, 0.5 MgCl2, 0.5 NaH2PO4, 1.8 CaCl2, 10 glucose, adjusted pH to 7.4 with NaOH, and then perfused with Ca^2+-free Tyrode solution for 5 min. After the hearts had stopped beating, Ca^2+-free Tyrode solution containing collagenase (0.5 mg ml^−1, Type II, Worthington) was perfused for 30 min. Finally, this enzyme containing solution was washed out for 5 min with a high K^+, low Cl^−KB solution containing (in mM): 70 K-glutamate, 55 KCl, 10 HEPES, 3 MgCl2, 20 taurine, 20 KH2PO4, 0.5 K-EGTA adjusted pH to 7.3 with KOH. A portion of the left ventricle was then dissected out and gently stirred with a forceps in KB solution. The isolated ventricular myocytes were kept in KB solution at 5° C. before use.
Patch pipettes (1˜2 MΩ when filled with experimental solutions) were pulled from borosilicate glass capillaries (Harvard Apparatus Ltd, UK). Conventional whole-cell patch clamp technique was used to record membrane current or voltage from single ventricular myocytes. In current-clamp mode, action potentials were evoked by a brief supra-threshold current pulse. In voltage clamp mode, access resistance was monitored throughout the experiment, and data were accepted only when the access resistance was kept below 6 MΩ. Filtered signals (10 KHz) from a patch clamp amplifier (Biologic RK 300, France), were fed into AD/DA converter (PCI-MIO-16E-4, National Instrument, USA), digitized at 20 KHz, and stored in PC for later analysis. The flow rate of the perfusion solution was 0.5˜1 ml min^−1. All electrophysiological experiments were performed at room temperature (23˜25° C.). The statistical results in the text and in figures were presented as means ±S.E.M. (n=number of cells studied). Statistical significance was accepted for p value <0.05.
APs were evoked by applying 50-70 pA depolarising current pulses (5 ms in duration) every 500 ms through a patch pipette in current clamp mode with a whole-cell configuration. The effects of dmLSB on APD were quantified in terms of APD90; defined as the APD measured at the voltage at which repolarization process is 90% complete. Time-profile of the change in APD90 values averaging from five sequential APs selected every 12 seconds was plotted in FIG. 2A as a function of whole-cell recording time.
Experimental methods for electrophysiology (recording currents and action potentials) are the same as described above for dmLSB.

[2] = system: inward rectifier K+ currents and delayed rectifier K+ currents; test: K+ currents in rat ventricular myocytes, voltage clamp with K+-rich pipette solution; format: cell-based; details: 10 μM dmLSB; I950ms
Experimental: (§1) Statistical significance was accepted for p value <0.05.
The K-rich pipette solution containing (in mM): 90 K-aspartate, 30 KCl, 2 MgCl2, 5 Mg-ATP, 10 HEPES, 5 K-EGTA, 5 diTris-creatine phosphate, 2.5 Na2-creatine phosphate was used. Cs-aspartate internal solution contained (in mM): 90 Cs-aspartate, 20 CsCl, 2 MgCl2, 5 Mg-ATP, 10 HEPES, 2.5 Na2-creatine phosphate, 10 tetraethyl-ammonium chloride (TEA-Cl), 5 Cs-EGTA with pH adjusted to 7.3 using CsOH. When Cs-aspartate internal solution was used in combination with normal Tyrode (NT) bathing solution, the holding current level was inward at −80 mV, probably due to K^+ influx via inward rectifier K channels. To prevent this inward holding current, KCl in the NT solution was substituted with equimolar CsCl.
To elucidate the mechanism underlying APD change by dmLSB, voltage-clamp experiments were performed and the effects of dmLSB on the ionic currents in rat ventricular myocytes were investigated. Membrane currents were recorded in a voltage clamp mode using a patch pipette containing a K^+-rich (140 mM) internal solution. […]
However, initial amplitudes measured at 20 ms (I20ms) in the presence of dmLSB differed from those measured under control conditions, and the I-V relationship deviated inwardly by dmLSB. […]

[3] = target: Na+ current (INa) (Rattus norvegicus, UniProt P15389); test: Na+ current (INa) in rat ventricular myocytes, whole-cell voltage clamp; format: cell-based; design: endogenous in cells; host or cells: freshly isolated rat (Sprague-Dawley) left ventricular myocytes
From the text: as §1
As sodium current (INa) in ventricular myocytes is so fast and large that membrane potential is prone to escape from the command voltage, it is necessary to reduce INa for a quantitative analysis. For this purpose, small ventricular myocytes isolated from young (3-weeks-old) rats were used, and currents recorded in a modified Cs^+-based low Na^+ bath solution (Yuill et al., 2000) which contained (in mM): 130 CsCl, 10 NaCl, 2.5 MgCl2, 0.5 CaCl2, 20 HEPES, 11 glucose, in experiments shown in FIG. 5. It was reported that the kinetics of INa in the standard solution (145 mM Na^+) and in Cs-based solution (10 mM Na^+) were similar.
To examine the effect of dmLSB on inward currents, a Cs^+-rich pipette solution containing 10 mM EGTA was used. To distinguish L-type Ca^2+ currents (ICa,L) from Na^+ currents (INa), a two-step pulse protocol was used (inset of FIG. 4A). […] Although the peak amplitude of INa was unaffected by dmLSB, significant broadening of inactivation phase was observed.
To avoid the problem of voltage escape and to investigate the effects of dmLSB on INa in a quantitative manner, INa was recorded in low external [Na^+] (10 mM). It is well known that the steady-state inactivation shifted spontaneously during whole-cell mode recording. To activate INa from the potential at which inactivation is fully recovered, depolarising test pulses were applied following a 500 ms pre-pulse to −120 mV. To eliminate the contamination of ICa,L and to isolate pure INa, current response to the same test pulse from holding potential (Vh) of −40 mV, which was regarded as ICa,L, was subtracted from that from Vh of −120 mV.
Pre-pulses of 500 ms duration at variable potentials (from −150 to −15 mV in 15 mV steps) preceded a 50 ms test pulse to −20 mV. The superimposed current responses to the test pulse (−20 mV) are shown in FIG. 6A (left, control; right, 20 μM dmLSB). […] The peak amplitudes of INa are plotted against pre-pulse voltages in FIG. 6B. […] The voltages for half inactivation were −75.7±0.61 mV (n=28) in control and −77.8±1.05 mV (n=32) in the presence of dmLSB (t-test, p>0.05).
Since dmLSB specifically affected the slow phase of inactivation, the difference current represented the slow inactivating INa (ISlow) induced by dmLSB. To quantify the magnitude of the effect of dmLSB on INa, the relative amplitude of ISlow to the peak INa was plotted.
Since dmLSB is lipophilic, it is possible that it permeates the plasma membrane and binds to intracellular receptors or to Na channel protein itself. It is not clear whether its effects were mediated via a cell surface binding site, an intracellular site, or both. To test this possibility, a ventricular myocyte was perfused intracellularly with the patch pipette solution containing 20 μM dmLSB, and INa was monitored while patch pipette solution diffused-in. Meanwhile, the series resistance (RS) was kept below 7 MΩ. As soon as the whole-cell patch was established, INa was recorded at a test potential of −20 mV, and this current trace was subtracted from subsequent INa records. The amplitudes of the subtracted currents were plotted as a function of whole-cell recording time (WCR time; FIG. 8A). […] No change in the inactivation kinetics of INa was observed until dmLSB was applied externally. When 5 μM dmLSB was bath-applied at ca 13 min of WCR time to the same cell, ISlow appeared, indicative of the dmLSB effect.

[4] = target: L-type Ca2+ current (ICa,L) (Rattus norvegicus, UniProt P22002); format: cell-based; details: 10 μM dmLSB
[5] = target: L-type calcium current (Homo sapiens, UniProt Q13936); details: cited from earlier work
[6] = target: cardiac INa (Homo sapiens, UniProt Q14524); details: cited from earlier work
[7] = system: inward rectifier K+ current; details: cited from earlier work
[8] = mean value, during dmLSB superfusion, n=7

Chain of L-type Ca2+ current (ICa,L) (P54290 945-1091, other chains not shown): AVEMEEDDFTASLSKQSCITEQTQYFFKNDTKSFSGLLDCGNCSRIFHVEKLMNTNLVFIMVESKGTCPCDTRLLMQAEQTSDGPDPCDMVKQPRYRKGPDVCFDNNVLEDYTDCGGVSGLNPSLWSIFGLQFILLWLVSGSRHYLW
Chain of L-type Ca2+ current (ICa,L) (P22002 whole entry, other chains not shown): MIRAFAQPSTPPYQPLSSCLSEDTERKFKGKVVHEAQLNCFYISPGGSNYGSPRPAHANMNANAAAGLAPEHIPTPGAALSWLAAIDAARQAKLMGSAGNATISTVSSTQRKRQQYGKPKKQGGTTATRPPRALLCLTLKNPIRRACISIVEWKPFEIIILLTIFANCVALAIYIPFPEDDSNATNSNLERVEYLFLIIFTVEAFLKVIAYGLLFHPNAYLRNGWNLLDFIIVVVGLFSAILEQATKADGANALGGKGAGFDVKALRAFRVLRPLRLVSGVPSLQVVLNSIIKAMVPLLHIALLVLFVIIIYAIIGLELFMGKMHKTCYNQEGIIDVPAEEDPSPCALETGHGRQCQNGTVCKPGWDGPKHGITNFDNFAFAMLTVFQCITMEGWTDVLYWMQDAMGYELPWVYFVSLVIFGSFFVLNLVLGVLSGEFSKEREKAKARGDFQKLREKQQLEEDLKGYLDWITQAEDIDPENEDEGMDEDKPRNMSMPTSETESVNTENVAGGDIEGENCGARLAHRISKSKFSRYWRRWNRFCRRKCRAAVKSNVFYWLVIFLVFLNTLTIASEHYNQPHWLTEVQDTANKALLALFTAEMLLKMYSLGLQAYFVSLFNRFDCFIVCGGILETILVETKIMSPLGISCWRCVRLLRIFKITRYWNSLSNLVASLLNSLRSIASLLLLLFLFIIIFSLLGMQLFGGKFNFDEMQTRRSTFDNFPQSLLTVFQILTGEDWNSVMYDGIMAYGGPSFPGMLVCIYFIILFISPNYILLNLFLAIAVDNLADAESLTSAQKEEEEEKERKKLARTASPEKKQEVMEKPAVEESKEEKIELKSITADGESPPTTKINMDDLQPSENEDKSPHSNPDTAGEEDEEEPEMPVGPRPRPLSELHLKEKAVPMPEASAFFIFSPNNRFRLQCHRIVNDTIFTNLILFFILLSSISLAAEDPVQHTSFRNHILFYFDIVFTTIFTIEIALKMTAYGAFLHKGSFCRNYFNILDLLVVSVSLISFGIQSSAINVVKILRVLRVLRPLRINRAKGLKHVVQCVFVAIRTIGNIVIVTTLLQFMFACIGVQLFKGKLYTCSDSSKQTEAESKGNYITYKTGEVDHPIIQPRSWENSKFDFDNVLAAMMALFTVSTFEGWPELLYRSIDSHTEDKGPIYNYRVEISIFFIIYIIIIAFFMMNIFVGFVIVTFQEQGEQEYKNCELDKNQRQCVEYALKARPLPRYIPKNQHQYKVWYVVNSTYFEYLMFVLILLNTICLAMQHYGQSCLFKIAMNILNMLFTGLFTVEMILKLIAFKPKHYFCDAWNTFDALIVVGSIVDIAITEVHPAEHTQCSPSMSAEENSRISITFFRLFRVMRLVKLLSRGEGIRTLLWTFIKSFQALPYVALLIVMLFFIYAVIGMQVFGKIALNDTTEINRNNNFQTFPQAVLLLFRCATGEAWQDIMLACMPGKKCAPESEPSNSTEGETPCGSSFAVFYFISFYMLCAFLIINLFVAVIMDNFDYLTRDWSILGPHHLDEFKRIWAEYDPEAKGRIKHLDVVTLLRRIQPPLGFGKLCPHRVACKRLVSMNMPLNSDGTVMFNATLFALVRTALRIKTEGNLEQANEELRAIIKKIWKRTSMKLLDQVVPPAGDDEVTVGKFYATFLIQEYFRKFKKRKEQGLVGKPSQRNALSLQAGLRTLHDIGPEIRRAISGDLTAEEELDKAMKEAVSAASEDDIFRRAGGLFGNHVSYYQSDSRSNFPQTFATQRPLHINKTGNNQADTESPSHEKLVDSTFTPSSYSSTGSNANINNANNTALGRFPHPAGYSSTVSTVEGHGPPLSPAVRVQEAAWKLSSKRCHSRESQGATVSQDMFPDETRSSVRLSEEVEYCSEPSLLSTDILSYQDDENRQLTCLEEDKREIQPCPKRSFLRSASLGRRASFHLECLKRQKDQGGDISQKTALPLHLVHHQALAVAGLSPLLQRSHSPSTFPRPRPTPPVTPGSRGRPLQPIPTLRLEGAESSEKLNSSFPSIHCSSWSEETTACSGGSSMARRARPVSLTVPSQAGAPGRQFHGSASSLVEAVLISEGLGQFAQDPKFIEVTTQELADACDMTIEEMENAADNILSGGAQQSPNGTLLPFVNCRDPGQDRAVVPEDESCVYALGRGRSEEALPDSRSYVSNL
Chain of L-type Ca2+ current (ICa,L) (P54290 25-944, other chains not shown): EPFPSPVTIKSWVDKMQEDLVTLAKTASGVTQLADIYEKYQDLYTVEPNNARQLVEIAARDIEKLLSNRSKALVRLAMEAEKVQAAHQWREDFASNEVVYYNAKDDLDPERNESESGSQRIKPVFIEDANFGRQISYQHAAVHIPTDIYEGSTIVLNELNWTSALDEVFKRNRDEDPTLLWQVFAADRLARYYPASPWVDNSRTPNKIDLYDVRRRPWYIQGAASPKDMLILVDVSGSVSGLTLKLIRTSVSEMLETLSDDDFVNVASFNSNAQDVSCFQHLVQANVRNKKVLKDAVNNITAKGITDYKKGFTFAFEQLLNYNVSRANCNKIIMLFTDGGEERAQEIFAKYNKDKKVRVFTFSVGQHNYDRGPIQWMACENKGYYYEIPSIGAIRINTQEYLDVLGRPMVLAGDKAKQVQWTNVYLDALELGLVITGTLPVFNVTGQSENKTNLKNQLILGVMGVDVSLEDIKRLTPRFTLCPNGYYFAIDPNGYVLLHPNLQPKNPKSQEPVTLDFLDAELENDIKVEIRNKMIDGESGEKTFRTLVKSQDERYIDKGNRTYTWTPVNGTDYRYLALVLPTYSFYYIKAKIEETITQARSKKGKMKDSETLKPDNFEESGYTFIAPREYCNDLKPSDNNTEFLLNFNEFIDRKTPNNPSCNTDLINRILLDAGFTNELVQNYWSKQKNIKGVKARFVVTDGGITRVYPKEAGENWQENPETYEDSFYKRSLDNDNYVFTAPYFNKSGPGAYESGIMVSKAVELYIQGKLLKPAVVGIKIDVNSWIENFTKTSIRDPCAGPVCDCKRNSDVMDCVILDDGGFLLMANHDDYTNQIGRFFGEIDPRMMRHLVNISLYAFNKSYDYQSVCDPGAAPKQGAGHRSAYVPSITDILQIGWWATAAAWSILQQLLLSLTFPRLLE

SMILES: COC(=O)[C@@H](Cc1ccc(O)c(O)c1)OC(=O)/C=C/c1ccc(O)c2c1[C@H](C(=O)O[C@H](Cc1ccc(O)c(O)c1)C(=O)OC)[C@@H](c1ccc(O)c(O)c1)O2 [dmLSB, dimethyl lithospermate B]
- Action potential duration (APD90) ([1]; 20 μM dmLSB, control 58.8±12.1 ms, n=7): 202.3 ± 9.5 ms
- early after-depolarisation (EAD) ([1]; during prolonged plateau phase of AP): no early after-depolarisation was observed; also recorded: not associated with the generation of EAD; also recorded: no EAD observed
- effect on AP duration (APD) ([1]; isolated rat ventricular myocytes): increases the APD
- overshoot potential [1, 8]: 53.53±8.8 mV
- resting membrane potential (RMP) [1, 8]: −68.46±2.6 mV
- concentration at which APD prolongation was maximal ([1]; tested up to 100 μM): 20 µM
- effect on K+ currents [2]: no noticeable effect; also recorded: no significant difference
- INa inactivation kinetics [3]: slowed the inactivation kinetics
- steady-state (s-s) inactivation of INa [3]: not affected; also recorded: no effect on the steady-state inactivation
- peak amplitude of INa ([3]; 10 μM dmLSB): unaffected; also recorded: decreased slightly
- time within which INa inactivation was completed ([3]; 10 μM dmLSB, −20 mV): ≤ 50 ms
- effect of intracellular application on INa ([3]; 20 μM dmLSB in pipette solution, n=4): essentially no effect on INa
- V1/2 of steady-state inactivation fit ([3]; 20 μM dmLSB, n=32, control −75.7, no unit): −77.8
- voltage for half inactivation ([3]; 20 μM dmLSB, n=32, control −75.7±0.61 mV): −77.8±1.05 mV
- k of steady-state inactivation fit ([3]; 20 μM dmLSB, control 10.20): 9.99
- amplitude of the slow component (AS), of the peak INa ([3]; at −20 mV, 10 μM dmLSB, bi-exponential fit, n=4): 22.1±1.02%
- time to maximal effect at each concentration ([3]; bath application): ca. 150 seconds
- Hill coefficient ([3]; dose-response of ISlow relative to peak INa): 1.02
- mean voltage for half-maximal activation ([3]; in the presence of 10 μM dmLSB, low [Na+] 10 mM, n=4, control −42.35±1.1): −37.28±0.8
- EC50 ([3]; test pulse −20 mV, Hill fit, read-out: EC50, relative amplitude of slow component (ISlow) to peak INa): 21.1 µM and 20 µM
- shift of voltage-dependence of activation (activation curve) ([3]; to the depolarised (right) direction, 10 μM dmLSB): 5 mV
- reversibility of effect on INa ([3]; wash-out): reversible; also recorded: completely reversed after the wash-out
- effect on Ca2+ currents (ICa,L) [4]: no noticeable effect; also recorded: hardly affected; also recorded: No significant difference

SMILES: N#Cc1cc2c(OCC(O)COC3CN(C(c4ccccc4)c4ccccc4)C3)cccc2[nH]1 (stereo not shown) [BDF 9148]
- calcium current (literature) [5]: inhibit
- persistent INa (literature) [6]: induce a persistent INa
- inward rectifier K+ current (literature) [7]: inhibit

SMILES: Cc1oc2ccccc2c1Cc1cc(I)c(OCC(=O)O)c(I)c1 [KB130015, 2-Methyl-3-(3,5-diiodo-4-carboxymethoxybenzyl)benzofuran]
- calcium current (literature) [5]: reduces ICa
- INa inactivation (literature) [6]: slowed INa inactivation
- persistent INa (literature) [6]: without developing persistent INa

SMILES: CC1(C)C(C(=O)OC(C#N)c2cccc(Oc3ccccc3)c2)C1(C)C (stereo not shown) [fenpropathrin]
- activation and inactivation curves of INa (literature) [6]: leftward shifts

SMILES: O=C(/C=C/c1ccc(O)c2c1C(C(=O)OC(Cc1ccc(O)c(O)c1)C(=O)O)C(c1ccc(O)c(O)c1)O2)OC(Cc1ccc(O)c(O)c1)C(=O)O (stereo not shown) [LSB, lithospermate B, reference compound]
- electrophysiological effect [1]: negligible electrophysiological effect; also recorded: no effect on cardiac action potential

SMILES: N#Cc1cc2c(OCC(O)CN3CCN(C(c4ccccc4)c4ccccc4)CC3)cccc2[nH]1 (stereo not shown) [DPI 201-106]
- calcium current (literature) [5]: inhibit
- persistent INa (literature) [6]: induce a persistent INa
- inward rectifier K+ current (literature) [7]: inhibit
